Experimental data: PMC13379085 (PLOS Neglected Tropical Diseases, 2026)

How the values were obtained:
[1] = test system: Extracellular L. mexicana promastigotes; test: Resazurin viability assay of extracellular L. mexicana promastigotes; type: cell-based, Leishmania mexicana
Experimental: (§1) The effect of compounds on extracellular promastigotes was evaluated using a resazurin-based assay as described previously. In short, late log phase Leishmania promastigotes were seeded in a 96 well plate at 1 x 10^5 parasites per well and treated with drugs (0.5 – 200 µM) for 72 hours at 25°C. Ten microliters of Resazurin (0.02% w/v) were added to the treated parasites to achieve a final concentration of 0.002% w/v and incubated for 24 hours. Viability of the promastigotes was assessed by fluorescence (excitation 544 nm, emission 590 nm, SpectraMax M2, Molecular Devices).

[2] = test system: Extracellular L. donovani promastigotes; test: Resazurin viability assay of extracellular L. donovani promastigotes; type: cell-based, Leishmania donovani; conditions: for 53 strain not specified
Experimental: as §1

[3] = test system: Intracellular L. donovani amastigotes; test: Luminescence-based assay of intracellular L. donovani burden in THP-1 macrophages; type: cell-based, Leishmania donovani
Experimental: Luminescent strains, L. donovani LV82 expressing firefly luciferase (a kind gift from Dr. Abhay Satoskar, Ohio State University) and L. mexicana (NR-51210, ATCC) expressing renilla luciferase were used to evaluate the effect of the compounds in intracellular and extracellular conditions. Wild-type L. donovani LV82 (ATCC) were used for Giemsa staining based experiments. All parasites were cultured at 25°C and 5% CO2 in M199 media (Corning) supplemented with 10% FBS, 1% Penicillin/Streptomycin, and Hemin (0.01 mg/mL), and used in experiments up to passage 15.
THP-1 cells were seeded in a 96 well plate (25,000 cells/well) overnight then differentiated with 150 nM phorbol 12-myristate 13-acetate (PMA) over 72 hours (S1 Fig). […] Briefly, promastigotes of a known cell density were resuspended in RPMI media (with 10% FBS, 1% P/S and 0.05 mM β-mercaptoethanol) and incubated with adhered THP-1 cells over 18 hours. After infection, cells were washed three times with fresh media to remove extracellular promastigotes.
Infected macrophages were then treated with compounds solubilized in DMSO ranging from 0.1-10 µM in concentrations. After 72 hours of treatment, the viability of the amastigotes within macrophages was determined using Promega firefly luminescence assay (Cat E1500) or Pierce Renilla luciferase assay (Cat 16166) for L. donovani and L. mexicana strains, respectively. Briefly, media was removed, and cells were lysed with the assay lysis buffer. The luciferase substrate was then incubated with the lysed cells for 10 min at room temperature and luminescence of live Leishmania was measured in a white opaque 96 well plate using a Biotek plate reader.

[4] = test system: Intracellular L. mexicana amastigotes; test: microbe, parasite or virus in culture; type: cell-based, Leishmania mexicana; conditions: bone marrow derived macrophages, Giemsa staining, 72-hour incubation
Experimental: Bone marrow derived macrophages (BMDMs) were isolated from BALB/c mice and cultured as previously described. […] Completely differentiated BMDMs are obtained after 7 days of culture with media change every 2 days. Harvested cells are seeded onto 10 mm glass cover slips at 5 x 10^5 cells/ well of a 24 well plate in DMEM media (without LCM) and allowed to adhere overnight. BMDM cells are then infected overnight with LV82 L. donovani or L. mexicana (NR-51210) at a multiplicity of infection of 10. After infection, cells were washed three times with fresh media to remove extracellular promastigotes and treated with compounds for a 72-hour incubation. BMDM cells were then washed with phosphate buffered saline, fixed with ice-cold methanol, and stained with Giemsa (5% v/v in water). The cover slips with stained cells are mounted onto glass slides and imaged on EVOS XL (100X, Thermo Fisher Scientific). Leishmania amastigotes per 100 macrophages were determined in a blinded manner.

LV82 L. donovani = test: Giemsa staining of intracellular L. donovani in BMDMs from wildtype C57BL/6 or lysozyme knockout mice; type: cell-based, Leishmania donovani; conditions: 72-hour incubation
Source text: B6.129P2-Lyz2^tm1(cre)Ifo/J mice (stock #004781, herein termed ‘Lys K/O’) were obtained from Jackson Laboratory. This strain has a nuclear-localized Cre recombinase inserted into the first coding ATG of the lysozyme 2 gene (Lyz2) which eliminates endogenous Lyz2 gene function. Wildtype C57BL6/J mice (stock #000664) were obtained as a control.
Bone marrow derived macrophages (BMDMs) were isolated from both mice and cultured as described above in “Image-based Evaluation of Intracellular Anti-Leishmanial Activity”. BMDMs were seeded onto glass cover slips, infected with LV82 L. donovani at a multiplicity of infection of 1:10. Cells were washed to remove extracellular promastigotes and treated with compounds (197, amphotericin B) for a 72-hour incubation. BMDM cells were then washed with phosphate buffered saline, fixed with ice-cold methanol, and stained with Giemsa (5% v/v in water). The cover slips with stained cells are mounted onto glass slides and imaged on EVOS XL (100X, Thermo Fisher Scientific). Leishmania amastigotes per 100 macrophages were determined in a blinded manner.

O=C(CNCc1cccc(F)c1)Nc1ccc(-n2cc(C(F)(F)F)nc2-c2ccc(-c3ccc(C(F)(F)F)cc3)cc2)cc1 [Compound 197]
effect on L. mexicana extracellular promastigote viability [1]: no effect
MIC50 ([1]; Leishmania mexicana, 72-hour incubation): > 200 µM
direct effects on extracellular promastigote viability [2]: some direct reduction
Selectivity 24h LC50/ Lum IC50 ([3]; host-directed effect vs cytotoxicity in THP-1): >20.6
intracellular activity (primary screen) ([3]; imidazole series): retaining potent intracellular activity
IC50 ([4]; Leishmania mexicana, Macrophage, 72 h): < 2000 nM
IC50 [4]: 1700 nM
anti-leishmanial activity in WT and Lys K/O BMDMs (LV82 L. donovani): notably decreased in Lys K/O BMDMs
